Results published in PubChem BioAssay AID328 (DTP/NCI, 2004).
“And” between values parts separate entries of the source, which are not always exact repeats. Equal values may be shown once. Toxic doses and inconclusive results are not listed. Starred links: 1 amine or outer side, 2 acyl side, 3 side chain; linkers in the order of their positions; H or OH if unused. Positions of bridges follow the written chain, without caps; N, C: chain ends. Non-standard residues stand in square brackets, D forms with d. Residues, ends and D or L forms follow the SMILES beside them. Chains are numbered I, II in the order given. Actinocin(1to9) = Cc1c2oc3c(C)ccc(C(=O)[*:2])c3nc-2c(C(=O)[*:1])c(N)c1=O; NMeV = CN[CH](C(=O)O)C(C)C; Aze = O=C(O)[CH]1CCN1; Sar = CNCC(=O)O

Tested on: BDF1 mice, P388 leukemia ip, median survival T/C
Assay: NCI In Vivo Anticancer Drug Screen. Data for tumor model P388 Leukemia (intraperitoneal) in B6D2F1 (BDF1) mice
Conditions: endpoint: median survival time, higher = longer survival
Method in brief: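 T/C = treated-group survival ÷ vehicle-control survival; tumour transplanted into mice before dosing.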

[1] = dose: 50.0 mg/kg/injection, schedule: Q01DX009 (ip), vehicle: saline
[2] = dose: 100.0 mg/kg/injection, schedule: Q01DX009 (ip), vehicle: saline
[3] = dose: 200.0 mg/kg/injection, schedule: Q01DX009 (ip), vehicle: saline
[4] = dose: 400.0 mg/kg/injection, schedule: Q01DX009 (ip), vehicle: saline

O=C(NCCNC(=O)c1cccc([N+](=O)[O-])c1O)c1cccc([N+](=O)[O-])c1O
T/C (dose: 50.0 mg/kg/injection, schedule: Q01DX001 (ip), vehicle: Klucel (hydroxypropylcellulose) (HPC)): 100 % of control | T/C (dose: 100.0 mg/kg/injection, schedule: Q01DX001 (ip), vehicle: Klucel (hydroxypropylcellulose) (HPC)): 100 % of control | T/C (dose: 200.0 mg/kg/injection, schedule: Q01DX001 (ip), vehicle: Klucel (hydroxypropylcellulose) (HPC)): 104 % of control

O=C1NC(Cc2ccccc2)C(=O)NC1Cc1ccccc1 (stereo unspecified)
T/C (dose: 6.25 mg/kg/injection, schedule: Q01DX009 (ip), vehicle: saline with Tween-80): 106 % of control | T/C (dose: 12.5 mg/kg/injection, schedule: Q01DX009 (ip), vehicle: saline with Tween-80): 101 % of control | T/C (dose: 25.0 mg/kg/injection, schedule: Q01DX009 (ip), vehicle: saline with Tween-80): 108 % of control

CCCCCCCCCCCCCCCCCCCCCCCCCCCC(=O)OCC(O)CO (stereo unspecified)
T/C (dose: 0.25 mg/kg/injection, schedule: Q01DX009 (ip), vehicle: saline + alcohol): 110 % of control | T/C (dose: 1.0 mg/kg/injection, schedule: Q01DX009 (ip), vehicle: saline + alcohol): 105 % of control

CCCC(C(CC)CO)C(CC)C(O)C(CC)CO (stereo unspecified)
T/C (dose: 50.0 mg/kg/injection, schedule: Q01DX005 (ip), vehicle: saline with Tween-80): 100 % of control | T/C (dose: 100.0 mg/kg/injection, schedule: Q01DX005 (ip), vehicle: saline with Tween-80): 94 % of control | T/C (dose: 200.0 mg/kg/injection, schedule: Q01DX005 (ip), vehicle: saline with Tween-80): 99 % of control

N#CCC(=O)Cc1ccccc1[N+](=O)[O-]
T/C (dose: 400.0 mg/kg/injection, schedule: Q01DX001 (ip), vehicle: saline sonified): 100 % of control

Cc1cc(NC(=O)NCc2ccc(N)cc2)ccc1S(=O)(=O)F
T/C (dose: 25.0 mg/kg/injection, schedule: Q01DX009 (ip), vehicle: saline): 97 % of control | T/C [1]: 109 % of control | T/C (dose: 50.0 mg/kg/injection, schedule: Q04DX003 (ip), vehicle: saline): 102 % of control | T/C (dose: 75.0 mg/kg/injection, schedule: Q01DX009 (ip), vehicle: saline): 115 % of control | T/C [2]: 90 % of control and 124 % of control | T/C (dose: 100.0 mg/kg/injection, schedule: Q04DX003 (ip), vehicle: saline): 102 % of control | T/C (dose: 150.0 mg/kg/injection, schedule: Q01DX009 (ip), vehicle: saline): 92 % of control | T/C [3]: 106 % of control | T/C (dose: 200.0 mg/kg/injection, schedule: Q04DX003 (ip), vehicle: saline): 100 % of control | T/C [4]: 99 % of control | T/C (dose: 400.0 mg/kg/injection, schedule: Q04DX003 (ip), vehicle: saline): 97 % of control

O=C1C(OC(=O)c2ccccc2)=C(c2ccc(O)cc2)C(=O)C(OC(=O)c2ccccc2)=C1c1ccc(O)cc1
T/C (dose: 100.0 mg/kg/injection, schedule: Q01DX009 (ip), vehicle: Klucel (hydroxypropylcellulose) (HPC)): 100 % of control | T/C (dose: 200.0 mg/kg/injection, schedule: Q01DX009 (ip), vehicle: Klucel (hydroxypropylcellulose) (HPC)): 100 % of control | T/C (dose: 400.0 mg/kg/injection, schedule: Q01DX009 (ip), vehicle: Klucel (hydroxypropylcellulose) (HPC)): 92 % of control

O=[N+]([O-])c1ccc(N2CCN=N2)cc1
T/C (dose: 25.0 mg/kg/injection, schedule: Q01DX010 (ip), vehicle: saline): 104 % of control | T/C (dose: 25.0 mg/kg/injection, schedule: Q04DX003 (ip), vehicle: saline sonified): 100 % of control | T/C (dose: 50.0 mg/kg/injection, schedule: Q01DX010 (ip), vehicle: saline): 123 % of control | T/C (dose: 50.0 mg/kg/injection, schedule: Q04DX003 (ip), vehicle: saline sonified): 95 % of control | T/C (dose: 100.0 mg/kg/injection, schedule: Q04DX003 (ip), vehicle: saline sonified): 86 % of control

COC(=O)CC(CC(=O)c1ccccc1)c1ccccc1 (stereo unspecified)
T/C (dose: 50.0 mg/kg/injection, schedule: Q01DX009 (ip), vehicle: saline with Tween-80): 95 % of control | T/C (dose: 100.0 mg/kg/injection, schedule: Q01DX009 (ip), vehicle: saline with Tween-80): 97 % of control | T/C (dose: 200.0 mg/kg/injection, schedule: Q01DX009 (ip), vehicle: saline with Tween-80): 87 % of control | T/C (dose: 400.0 mg/kg/injection, schedule: Q01DX009 (ip), vehicle: saline with Tween-80): 88 % of control

CCOP(=O)(OCC)C(C)OC (stereo unspecified)
T/C [1]: 100 % of control and 105 % of control | T/C [2]: 115 % of control and 116 % of control | T/C [3]: 104 % of control and 120 % of control | T/C [4]: 100 % of control

O=C1CC(c2ccc(O)cc2)CC(=O)C1C(C1CC=CCC1)N(CCCl)CCCl (stereo unspecified)
T/C (dose: 100.0 mg/kg/injection, schedule: Q04DX003 (ip), vehicle: Klucel (hydroxypropylcellulose) (HPC)): 109 % of control and 87 % of control | T/C (dose: 200.0 mg/kg/injection, schedule: Q04DX003 (ip), vehicle: Klucel (hydroxypropylcellulose) (HPC)): 120 % of control

CC1(C)C(O)(C#N)C(C)(C)C1(O)C#N (stereo unspecified)
T/C (dose: 3.13 mg/kg/injection, schedule: Q04DX003 (ip), vehicle: saline): 100 % of control | T/C (dose: 6.25 mg/kg/injection, schedule: Q04DX003 (ip), vehicle: saline): 109 % of control | T/C (dose: 12.5 mg/kg/injection, schedule: Q04DX003 (ip), vehicle: saline): 95 % of control

Cc1c2oc3c(C)ccc(C(=O)NC4C(=O)NC(C(C)C)C(=O)N5CCCC5C(=O)N(C)CC(=O)N(C)C(C(C)C)C(=O)OC4C)c3nc-2c(C(=O)NC2C(=O)NC(C(C)C)C(=O)N3CCC3C(=O)N(C)CC(=O)N(C)C(C(C)C)C(=O)OC2C)c(N)c1=O (stereo unspecified) (I: TV[Aze][Sar][NMeV] / II: TVP[Sar][NMeV]; ester I:1-I:C, II:1-II:C; linker I:N-II:N via Actinocin(1to9); configuration not given here)
T/C (dose: 0.26 mg/kg/injection, schedule: Q04DX003 (ip), vehicle: saline): 201 % of control | T/C (dose: 0.3 mg/kg/injection, schedule: Q04DX003 (ip), vehicle: saline + alcohol): 265 % of control and 168 % of control | T/C (dose: 0.4 mg/kg/injection, schedule: Q04DX003 (ip), vehicle: saline): 250 % of control | T/C (dose: 0.45 mg/kg/injection, schedule: Q04DX003 (ip), vehicle: saline + alcohol): 256 % of control and 223 % of control | T/C (dose: 0.6 mg/kg/injection, schedule: Q04DX003 (ip), vehicle: saline + alcohol): 230 % of control and 159 % of control | T/C (dose: 0.6 mg/kg/injection, schedule: Q04DX003 (ip), vehicle: saline): 373 % of control | T/C (dose: 0.9 mg/kg/injection, schedule: Q04DX003 (ip), vehicle: saline + alcohol): 123 % of control and 219 % of control | T/C (dose: 0.9 mg/kg/injection, schedule: Q04DX003 (ip), vehicle: saline): 551 % of control | T/C (dose: 1.2 mg/kg/injection, schedule: Q04DX003 (ip), vehicle: saline + alcohol): 97 % of control and 117 % of control | T/C (dose: 1.3 mg/kg/injection, schedule: Q04DX003 (ip), vehicle: saline): 551 % of control | T/C (dose: 12.5 micrograms/kg/injection, schedule: Q01DX009 (ip), vehicle: saline + alcohol): 197 % of control | T/C (dose: 25.0 micrograms/kg/injection, schedule: Q01DX009 (ip), vehicle: saline + alcohol): 218 % of control | T/C (dose: 50.0 micrograms/kg/injection, schedule: Q01DX009 (ip), vehicle: saline + alcohol): 263 % of control | T/C (dose: 75.0 micrograms/kg/injection, schedule: Q04DX003 (ip), vehicle: saline + alcohol): 205 % of control | T/C (dose: 100.0 micrograms/kg/injection, schedule: Q01DX009 (ip), vehicle: saline + alcohol): 270 % of control | T/C (dose: 112.5 micrograms/kg/injection, schedule: Q01DX009 (ip), vehicle: saline + alcohol): 265 % of control | T/C (dose: 150.0 micrograms/kg/injection, schedule: Q01DX009 (ip), vehicle: saline + alcohol): 212 % of control | T/C (dose: 150.0 micrograms/kg/injection, schedule: Q04DX003 (ip), vehicle: saline + alcohol): 226 % of control and 153 % of control | T/C (dose: 200.0 micrograms/kg/injection, schedule: Q01DX009 (ip), vehicle: saline + alcohol): 622 % of control | T/C (dose: 225.0 micrograms/kg/injection, schedule: Q01DX009 (ip), vehicle: saline + alcohol): 105 % of control | T/C (dose: 300.0 micrograms/kg/injection, schedule: Q01DX009 (ip), vehicle: saline + alcohol): 95 % of control | T/C (dose: 300.0 micrograms/kg/injection, schedule: Q04DX003 (ip), vehicle: saline + alcohol): 250 % of control and 197 % of control | T/C (dose: 450.0 micrograms/kg/injection, schedule: Q01DX009 (ip), vehicle: saline + alcohol): 94 % of control | T/C (dose: 600.0 micrograms/kg/injection, schedule: Q04DX003 (ip), vehicle: saline + alcohol): 385 % of control and 388 % of control | T/C (dose: 1200.0 micrograms/kg/injection, schedule: Q04DX003 (ip), vehicle: saline + alcohol): 104 % of control

COC(=O)C1c2cc3c(c(O)c2CCC1(C)O)C(=O)c1c(O)cc2c(c1C3=O)OC1OC2(C)C(O)C(N(C)C)C1O (stereo unspecified)
T/C (dose: 11.0 mg/kg/injection, schedule: Q01DX009 (ip), vehicle: saline): 113 % of control | T/C (dose: 200.0 mg/kg/injection, schedule: Q01DX010 (ip), vehicle: saline): 105 % of control
